Source: paper PMC4311994, “Identification, Expression Profiling and Fluorescence-Based Binding Assays of a Chemosensory Protein Gene from the Western Flower Thrips, Frankliniella occidentalis” (PLoS ONE, 2015)
Where two headings read alike, the source gives them in different places.

Experiments:
[1] = target: recombinant FoccCSP protein (Frankliniella occidentalis, UniProt A0A0C5AYL1); assay: biochemical; assay type: binding; settings: for Kd: Dissociation constant (KD), calculated from IC50 with Ki = [IC50]/(1+[1-NPN]/K1-NPN)
Procedure: (§1) Fluorescence binding assays were performed using a 970CRT spectrofluorophotometer (Lengguang, Shanghai, China) at 25°C with a 1 cm lightpath quartz cuvette and 10 nm slit width for excitation and emission. FoccCSP protein was diluted from a 2 μM stock solution with 50 mM Tris-HCl buffer (pH 7.4). The fluorescent probe N-phenyl-1-naphthylamine (1-NPN) was diluted from a 1 mM stock solution with methanol. The potential ligands were prepared in a similar manner as 1-NPN.
To measure the affinity of the 1-NPN fluorescent ligand for FoccCSP, the 2 μM protein solution prepared above was titrated with 1 mM 1-NPN to a final concentration between 2 and 20 μM. The affinities of the other potential ligands were measured using 1-NPN as a fluorescent reporter in competitive binding assays using 2 μM solutions of 1-NPN and FoccCSP and the addition of ligands to concentrations of 2–300 μM.
To determine the 1-NPN and FoccCSP binding constants, the intensity values corresponding to the maximum fluorescence emissions were plotted against the concentration of free ligand. The bound ligand was evaluated using the fluorescence intensity values assuming that the protein was 100% active and using a saturation stoichiometry of 1:1 protein:ligand. The curves were linearized using the Scatchard Plot program. The dissociation constants for the competitors were calculated from the corresponding IC50 values using the equation K i = [IC 50]/(1+[1-NPN]/K 1-NPN), where [1-NPN] is the free concentration of 1-NPN and K 1-NPN is the dissociation constant of the FoccCSP/1-NPN complex.

FoccCSP protein = target: T1, FoccCSP protein (Frankliniella occidentalis, UniProt A0A0C5AYL1); assay: Binding of the fluorescent probe 1-NPN to FoccCSP (titration, Scatchard plot); settings: 2 μM FoccCSP titrated with 1-NPN to 2–20 μM, read-out: FoccCSP/1-NPN complex dissociation constant
T1 sequence (A0A0C5AYL1 20-128): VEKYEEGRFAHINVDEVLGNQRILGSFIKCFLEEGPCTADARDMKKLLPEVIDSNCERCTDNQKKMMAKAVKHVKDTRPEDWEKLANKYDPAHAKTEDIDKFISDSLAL
Procedure: as §1
The intrinsic fluorescence of tryptophan was measured using a 2 μM FoccCSP protein solution. The excitation wavelength was 285 nm, and the emission spectrum was recorded between 290 and 530 nm. Quenching of the intrinsic fluorescence was measured in the presence of 2, 4, 6, 8, 10, 12, 14, 16, 18, and 20 μM 1-NPN under the same conditions.
To measure the affinity of the 1-NPN fluorescent ligand for FoccCSP, the 2 μM protein solution prepared above was titrated with 1 mM 1-NPN to a final concentration between 2 and 20 μM. […]
To determine the 1-NPN and FoccCSP binding constants, the intensity values corresponding to the maximum fluorescence emissions were plotted against the concentration of free ligand. The bound ligand was evaluated using the fluorescence intensity values assuming that the protein was 100% active and using a saturation stoichiometry of 1:1 protein:ligand. […]

[2] = competitive displacement of 1-NPN, 2 μM 1-NPN and 2 μM FoccCSP, ligands 2–300 μM, 50 mM Tris-HCl pH 7.4, 25°C, read-out: IC50

Q: With CC(C)=CCC[C@@H](C)CC=O [Citronellal] as the compound, how does the IC50 [1, 2] read?
A: The IC50 was 76.1 µM.

Q: 3- phenyl aldehyde was tested. Which IC50 [1, 2] did it give?
A: Its IC50 is 108 µM.

Q: c1ccc(Nc2cccc3ccccc23)cc1 [1-NPN, N-phenyl-1-naphthylamine] was tested. Which Kd (FoccCSP protein) did it give?
A: The Kd was 11.8 µM.

Q: COC(=O)c1ccncc1 [Methyl isonicotinate] was tested. Which IC50 [1, 2] did it give?
A: Its IC50 is 52 µM.

Q: Which “Displacement of 1-NPN from the FoccCSP/1-NPN complex, fluorescence intensity decreased to 50% of the initial value” ([1]; ligands up to 300 μM) does the source give for O=Cc1ccccc1O [Salicylaldehyde] here?
A: Its value is “unable to displace the fluorescent 1-NPN probe”.

Q: For CCCCCCCCC=O [Pelargonic aldehyde], which IC50 [1, 2] is on record?
A: The IC50 was 79 µM.

Q: How did the IC50 [1, 2] turn out when Neroli was run?
A: Its IC50 is 98.9 µM.

Q: Which results are given for COC(=O)c1ccccc1O [Methyl salicylate]?
A: IC50 [1]: 35.2 µM; Kd ([1]; 2 μM 1-NPN and 2 μM FoccCSP): 32.5 µM

Q: Which results are given for CC(C)=CCCC(C)CCO (centres unmarked) [Citronellol]?
A: IC50 [1]: 75.8 µM; Kd ([1]; 2 μM 1-NPN and 2 μM FoccCSP): 69.9 µM

Q: Which results are given for CC(C)=CCC/C(C)=C/CO [Geraniol]?
A: IC50 [1]: 15.3 µM; Kd ([1]; 2 μM 1-NPN and 2 μM FoccCSP): 14.1 µM

Q: Which IC50 [1] does the source give for CCCCCC [Hexane] here?
A: The IC50 was 94.2 µM.

Q: And the Kd ([1]; 2 μM 1-NPN and 2 μM FoccCSP)?
A: Its Kd is 86.9 µM.

Q: CC(=O)OCc1ccccc1 [Benzyl acetate] was tested. Which IC50 [1] did it give?
A: The IC50 was 98.2 µM.

Q: What about the Kd ([1]; 2 μM 1-NPN and 2 μM FoccCSP) of the same compound?
A: The Kd was 90.5 µM.

Q: Which IC50 [1, 2] does the source give for COc1ccc(C=O)cc1 [Anisic aldehyde] here?
A: The IC50 was 11.4 µM.

Q: For CCc1ccccc1 [Ethyl benzene], which IC50 [1] is on record?
A: The IC50 was 63.4 µM.

Q: And the Kd ([1]; 2 μM 1-NPN and 2 μM FoccCSP)?
A: The Kd was 58.5 µM.

Q: OCc1ccccc1 [Benzyl alcohol] was tested. Which IC50 [1] did it give?
A: Its IC50 is 119 µM.

Q: What about the Kd ([1]; 2 μM 1-NPN and 2 μM FoccCSP) of the same compound?
A: Its Kd is 109 µM.

Q: Which IC50 [1] does the source give for C=CCc1ccc(O)c(OC)c1 [Eugenol] here?
A: Its IC50 is 96.4 µM.

Q: What about the Kd ([1]; 2 μM 1-NPN and 2 μM FoccCSP) of the same compound?
A: The Kd was 88.9 µM.

Q: Which IC50 [1] does the source give for CCOC(=O)c1cccnc1 [Ethyl nicotinate] here?
A: Its IC50 is 52 µM.

Q: And the Kd ([1]; 2 μM 1-NPN and 2 μM FoccCSP)?
A: The Kd was 47.9 µM.

Q: C=CC(C)(O)CCC=C(C)C (centres unmarked) [Linalool] was tested. Which IC50 [1] did it give?
A: The IC50 was 85.6 µM.

Q: What about the Kd ([1]; 2 μM 1-NPN and 2 μM FoccCSP) of the same compound?
A: Its Kd is 79 µM.

Q: With O=Cc1ccccc1 [Benzaldehyde] as the compound, how does the IC50 [1] read?
A: Its IC50 is 52.5 µM.

Q: What about the Kd ([1]; 2 μM 1-NPN and 2 μM FoccCSP) of the same compound?
A: The Kd was 48.4 µM.

Q: CC12CCC(CC1)C(C)(C)O2 [Eucalyptol] was tested. Which IC50 [1] did it give?
A: Its IC50 is 92.4 µM.

Q: What about the Kd ([1]; 2 μM 1-NPN and 2 μM FoccCSP) of the same compound?
A: Its Kd is 85.2 µM.
